Source: patent US20260250524A1, “METAL-PHENOLIC NANOPATTERNS AND METHODS OF MAKING AND USING THE SAME” (NORTHWESTERN UNIVERSITY, priority 2023, published 2026)

Assay: Solubility of polyphenols in water
Assay type: physicochemical
Source text: Methods of the disclosure can be used to design functional nanopatterns with tunable properties (e.g., mechanical properties that can be varied based on the strength of coordination between the metal ion and polyphenol). For example, the stability and mechanical properties of nanopatterns can be varied based on the strength of coordination between the metal ion and the polyphenol. […] The polymeric, multitopic structure of large polyphenols like TA can provide greater binding affinity to various substrates. These polyphenols also have other different characteristics, such as water solubility. […] This can broaden the range of ink concentrations that are suitable for tip-directed patterning.
Other inks based on different polyphenols (GA, ECG, and EGCG) were prepared according to similar protocols. […] However, ECG had limited solubility of <1 mg/mL in water. Therefore, 0.5 mg/mL was used for ECG-based inks. Unless otherwise noted, the concentration of polyphenol was 5 mg mL^−1 and the molar ratio of polyphenol to metal ion was 1:1. For GA-based inks, the molar ratio of GA to metal ion was 10:1. For the EGCG-Ni ink, the molar ratio of EGCG to Ni was 5:1. These molar ratios were determined after considering the solubility of each metal salt and the molecular weight of each polyphenol.

SMILES	solubility (in water) [µg/mL]	water solubility relative to GA, ECG, and EGCG (comparison in words)
O=C(O[C@@H]1Cc2c(O)cc(O)cc2O[C@@H]1c1ccc(O)c(O)c1)c1cc(O)c(O)c(O)c1 [ECG, epicatechin gallate]	< 1000	
O=C(OC[C@H]1O[C@@H](OC(=O)c2cc(O)c(O)c(OC(=O)c3cc(O)c(O)c(O)c3)c2)[C@H](OC(=O)c2cc(O)c(O)c(OC(=O)c3cc(O)c(O)c(O)c3)c2)[C@@H](OC(=O)c2cc(O)c(O)c(OC(=O)c3cc(O)c(O)c(O)c3)c2)[C@@H]1OC(=O)c1cc(O)c(O)c(OC(=O)c2cc(O)c(O)c(O)c2)c1)c1cc(O)c(O)c(OC(=O)c2cc(O)c(O)c(O)c2)c1 [TA, Tannic acid]		substantially higher solubility
